{"source": "patent US20260034277A1", "about": "“SYSTEMS AND METHODS FOR PATHOGEN INACTIVATION OF BLOOD PRODUCTS” (Cerus Corporation, priority 2024, published 2026)", "key": {"RBCs": {"test_system": "RBCs", "assay": "Hemolysis after addition to RBCs of S-303/GSH reconstituted in WFI or saline", "format": "cell-based", "description": "A study was performed to evaluate water (WFI, water for injection) as an alternative to saline for reconstitution of S-303 and/or GSH, for potential advantages such as manufacturing, cost of goods and/or regulatory requirements. Initially, the combinations of S-303 and GSH both reconstituted in WFI, or alternatively GSH reconstituted in WFI and S-303 reconstituted in saline were compared to the standard method of reconstituting both GSH and S-303 in saline. Following addition to RBCs, the level of hemolysis was evaluated due to water potentially being a hypotonic environment for the RBC.\nBased on the extended stability data above for reconstituting S-303 at higher concentrations, an opportunity is provided for using bulk S-303 containers and a dosing device as described above for reconstituting S-303 at higher concentrations followed by a dilution step with diluent as part of the transfer of S-303 to the RBC in the mixing container. With such a dilution step, water may be substituted as an alternative to saline in the reconstitution step for the bulk S-303, followed by dilution in saline prior to each transfer step into individual RBC processing sets. To evaluate the feasibility of water reconstitution followed by saline dilution, an additional study was performed. […]"}, "[1]": {"assay": "Stability of S-303 after reconstitution, HPLC percent total peak area", "format": "physicochemical", "excerpt": "Increasing the throughput of RBC processing over the current process may benefit from the preparation of multi-use “bulk” containers of S-303 and GSH stock solutions for transfer (e.g., sequential transfer) into multiple processing sets to treat multiple RBC units. However, the instability of S-303 after reconstitution in the current INTERCEPT Blood System technology would generally not be suitable for such a multi-dose container approach. Toward an objective of multi-dose “bulk” dosing, which would require much longer hold times post-reconstitution, studies were performed to evaluate the stability of S-303 under different conditions, such as when reconstituted at higher concentrations. As control, S-303 was reconstituted at a concentration of 6.1 mM. Additional study arms reconstituted S-303 at 9.4 mM, 14.4 mM and 28.8 mM (Table 10). S-303 levels were measured over 120 min after reconstitution by standard HPLC and calculated as total peak area (e.g., area under the peak, area under the curve) to determine percent stability (percent total area).\nSubsequent studies were performed in a similar manner as the above to further evaluate S-303 stability at higher concentrations than tested initially, including reconstitution at 40 mM, 50 mM and 75 mM concentrations."}, "[2]": {"assay": "Stability of S-303 after reconstitution, HPLC percent total peak area", "format": "physicochemical", "remark": "listed apart in the source"}}}
{"smiles": "O=C(CCNc1c2ccccc2nc2ccccc12)OCCN(CCCl)CCCl", "note": "[S-303, β-alanine, N-(acridin-9-yl), 2-[bis(2-chloroethyl)amino]ethyl ester]", "values": [{"measurement": "hemolysis", "setting": "RBCs; S-303 reconstituted at 28.8 mM or 50 mM in WFI, diluted to 6 mM in saline prior to addition to RBCs, GSH in WFI (FIG. 7)", "result": "eliminated the issue of hydrolysis previously observed"}, {"measurement": "level of hemolysis", "setting": "RBCs; S-303 reconstituted in WFI, after addition to RBCs, compared with saline reconstitution (FIG. 6)", "result": "notable levels of hemolysis"}, {"measurement": "stability, glass vials vs hemocompatible blood bags of different sheeting materials", "setting": "[1]; 75 mM", "result": "no differences in stability observed"}, {"measurement": "Mean % stability", "setting": "[1]; reconstituted at 6.1 mM (control), 1 min", "result": 98, "unit": "%"}, {"measurement": "Mean % stability", "setting": "[1]; reconstituted at 6.1 mM (control), 10 min", "result": 97, "unit": "%"}, {"measurement": "Mean % stability", "setting": "[1]; reconstituted at 6.1 mM (control), 20 min", "result": 95, "unit": "%"}, {"measurement": "Mean % stability", "setting": "[1]; reconstituted at 6.1 mM (control), 30 min", "result": 94, "unit": "%"}, {"measurement": "Mean % stability", "setting": "[1]; reconstituted at 6.1 mM (control), 45 min", "result": 92, "unit": "%"}, {"measurement": "Mean % stability", "setting": "[1]; reconstituted at 6.1 mM (control), 60 min", "result": 90, "unit": "%"}, {"measurement": "Mean % stability", "setting": "[1]; reconstituted at 6.1 mM (control), 90 min", "result": 87, "unit": "%"}, {"measurement": "Mean % stability", "setting": "[1]; reconstituted at 6.1 mM (control), 120 min", "result": 85, "unit": "%"}, {"measurement": "Mean % stability", "setting": "[1]; reconstituted at 9.4 mM, 1 min", "result": 98, "unit": "%"}, {"measurement": "Mean % stability", "setting": "[1]; reconstituted at 9.4 mM, 10 min", "result": 97, "unit": "%"}, {"measurement": "Mean % stability", "setting": "[1]; reconstituted at 9.4 mM, 20 min", "result": 96, "unit": "%"}, {"measurement": "Mean % stability", "setting": "[1]; reconstituted at 9.4 mM, 30 min", "result": 95, "unit": "%"}, {"measurement": "Mean % stability", "setting": "[1]; reconstituted at 9.4 mM, 45 min", "result": 93, "unit": "%"}, {"measurement": "Mean % stability", "setting": "[1]; reconstituted at 9.4 mM, 60 min", "result": 92, "unit": "%"}, {"measurement": "Mean % stability", "setting": "[1]; reconstituted at 9.4 mM, 90 min", "result": 90, "unit": "%"}, {"measurement": "Mean % stability", "setting": "[1]; reconstituted at 9.4 mM, 120 min", "result": 87, "unit": "%"}, {"measurement": "Mean % stability", "setting": "[1]; reconstituted at 14.4 mM, 1 min", "result": 99, "unit": "%"}, {"measurement": "Mean % stability", "setting": "[1]; reconstituted at 14.4 mM, 10 min", "result": 97, "unit": "%"}, {"measurement": "Mean % stability", "setting": "[1]; reconstituted at 14.4 mM, 20 min", "result": 96, "unit": "%"}, {"measurement": "Mean % stability", "setting": "[1]; reconstituted at 14.4 mM, 30 min", "result": 96, "unit": "%"}, {"measurement": "Mean % stability", "setting": "[1]; reconstituted at 14.4 mM, 45 min", "result": 95, "unit": "%"}, {"measurement": "Mean % stability", "setting": "[1]; reconstituted at 14.4 mM, 60 min", "result": 94, "unit": "%"}, {"measurement": "Mean % stability", "setting": "[1]; reconstituted at 14.4 mM, 90 min", "result": 92, "unit": "%"}, {"measurement": "Mean % stability", "setting": "[1]; reconstituted at 14.4 mM, 120 min", "result": 90, "unit": "%"}, {"measurement": "Mean % stability", "setting": "[1]; reconstituted at 28.8 mM, 1 min", "result": 99, "unit": "%"}, {"measurement": "Mean % stability", "setting": "[1]; reconstituted at 28.8 mM, 10 min", "result": 98, "unit": "%"}, {"measurement": "Mean % stability", "setting": "[1]; reconstituted at 28.8 mM, 20 min", "result": 97, "unit": "%"}, {"measurement": "Mean % stability", "setting": "[1]; reconstituted at 28.8 mM, 30 min", "result": 97, "unit": "%"}, {"measurement": "Mean % stability", "setting": "[1]; reconstituted at 28.8 mM, 45 min", "result": 96, "unit": "%"}, {"measurement": "Mean % stability", "setting": "[1]; reconstituted at 28.8 mM, 60 min", "result": 95, "unit": "%"}, {"measurement": "Mean % stability", "setting": "[1]; reconstituted at 28.8 mM, 90 min", "result": 94, "unit": "%"}, {"measurement": "Mean % stability", "setting": "[1]; reconstituted at 28.8 mM, 120 min", "result": 92, "unit": "%"}, {"measurement": "percent stable", "setting": "[1]; reconstituted at 28.8 mM, up to 60 minutes", "result": "> 95", "unit": "%"}, {"measurement": "stability", "setting": "[1]; reconstituted at 75 mM, through 150 min", "result": "at least 95%"}, {"measurement": "stability time, extrapolation of the data in a best fit curve", "setting": "[2]; 100 mM concentration", "result": "approximately 170 min"}, {"measurement": "stability time, extrapolation of the data in a best fit curve", "setting": "[2]; 150 mM concentration", "result": "~240", "unit": "min"}]}
